Experimental data reported in patent US20050187240A1, “Aaptamine and isoaaptamine and structural modifications thereof” (The Arizona Board of Regents, Acting for and on behalf of …, priority 2004, published 2005).
In brackets after ≈: the same amount, converted by molar mass. Where a name gives a salt, the structure may show the parent alone. Read-outs that look alike come from different tables or passages of the source.

Assays:
[1] = tested on: Micrococcus luteus; test: Broth microdilution susceptibility assay, Micrococcus luteus; type: cell-based; conditions: for MIC: Table 4, read-out: Range of minimum inhibitory concentration
[2] = tested on: colon KM 20L2; test: Cancer cell growth inhibition, colon KM 20L2; type: cell-based, human; conditions: Homo sapiens, colon KM 20L2
Description: (§1) Evaluation of demethyloxyaaptamine (3), aaptamine (1), isoaaptamine (2) and hystatin 1 (11) against the Arizona State University Cancer Research Institute's human tumor cell line panel (Table 1) and the NCI 60-cell line human tumor screen were undertaken. (Boyd, M. R., Cancer: Principles and Practices of Oncology Updates; DeVita, et al., Eds; Lippincott: Philadelphia, 1989, Vol. 10, No. 3, pp. 1-12; Boyd, et al., Drug Development Research 1995, 34, 91-109; Boyd, M. R., et al. Cytotoxic Anticancer Drugs: Models and Concepts for Drug Discovery and Development; Valeriote, A., et al., Eds, Kluwer Academic Publishers: Amsterdam, 1992, pp. 11-34.)
(§2) Biology The cancer cell growth inhibitory properties were examined using the murine P388 lymphocytic leukemia cell line and a selection of human cancer cell lines.
(§3) All of the synthetic products were evaluated against a minipanel of human cancer cell lines, the murine P388 lymphocytic leukemia cell line and a selection of microorganisms.

[3] = tested on: Cryptococcus neoformans; test: Broth microdilution susceptibility assay, Cryptococcus neoformans; type: cell-based; conditions: for MIC: Table 4, read-out: Range of minimum inhibitory concentration
[4] = tested on: Enterococcus faecalis; test: Broth microdilution susceptibility assay, Enterococcus faecalis; type: cell-based; conditions: Table 4, read-out: Range of minimum inhibitory concentration
[5] = tested on: Enterobacter cloacae; test: Broth microdilution susceptibility assay, Enterobacter cloacae; type: cell-based; conditions: Table 4, read-out: Range of minimum inhibitory concentration
[6] = tested on: Candida albicans; test: Broth microdilution susceptibility assay, Candida albicans; type: cell-based; conditions: for MIC: Table 4, read-out: Range of minimum inhibitory concentration
[7] = tested on: CNS SF-268; test: Cancer cell growth inhibition, CNS SF-268; type: cell-based, human; conditions: Homo sapiens, CNS SF-268
Method: as §2, §3

[8] = tested on: Escherichia coli; test: Broth microdilution susceptibility assay, Escherichia coli; type: cell-based; conditions: for MIC: Table 4, read-out: Range of minimum inhibitory concentration
[9] = biological target: PKC alpha (Homo sapiens, UniProt P17252); test: Inhibition of PKC catalytic activity (peptide substrate phosphorylation); type: biochemical; conditions: 30 μM compound; 1 μM phorbol 12-myristate 13-acetate, 100 μg/ml phospholipid; mean±SEM, three experiments; read-out: percent inhibition of PKC catalytic activity
Description: We further evaluated the ability of the derivatives to inhibit PKC catalytic activity. […] Inhibition by 10c was 19.5±7.6% and inhibition by 4, 5, and 9a, b, c was 6% or less (all values are mean±SEM, three experiments). […] In both cases, the inhibition curves were steeper than predicted for a competitive inhibitor, consistent with a complicated mechanism of action (Hill coefficients for 10a and 10b of 1.5±0.1 and 2.0±0.5, respectively).

[10] = tested on: murine P388 lymphocytic leukemia cell line; test: Cancer cell growth inhibition, murine P388 lymphocytic leukemia cell line; type: cell-based; conditions: for IC50: Mus musculus; for P388 ED50: murine P388
Description: as §1, §2, §3

[11] = tested on: Streptococcus pneumoniae; test: Broth microdilution susceptibility assay, Streptococcus pneumoniae; type: cell-based; conditions: for MIC: Table 4, read-out: Range of minimum inhibitory concentration
[12] = tested on: Stenotrophomonas maltophilia; test: Broth microdilution susceptibility assay, Stenotrophomonas maltophilia; type: cell-based; conditions: for MIC: Table 4, Stenotrophomonas maltophil, read-out: Range of minimum inhibitory concentration
[13] = tested on: Staphylococcus aureus; test: Broth microdilution susceptibility assay, Staphylococcus aureus; type: cell-based; conditions: for MIC: Table 4, read-out: Range of minimum inhibitory concentration
[14] = tested on: Neisseria gonorrhoeae; test: Broth microdilution susceptibility assay, Neisseria gonorrhoeae; type: cell-based; conditions: for MIC: Table 4, read-out: Range of minimum inhibitory concentration
[15] = tested on: breast MCF-7; test: Cancer cell growth inhibition, breast MCF-7; type: cell-based, human; conditions: Homo sapiens, MCF7, breast MCF-7
Method: as §2, §3

[16] = tested on: pancreas BXPC-3; test: Cancer cell growth inhibition, pancreas BXPC-3; type: cell-based, human; conditions: Homo sapiens, pancreas BXPC-3
Method: as §2, §3

[17] = tested on: prostrate DU-145; test: Cancer cell growth inhibition, prostate DU-145; type: cell-based, human; conditions: Homo sapiens
Method: as §2, §3

[18] = tested on: lung NCI-H460; test: Cancer cell growth inhibition, lung NCI-H460; type: cell-based, human; conditions: Homo sapiens, lung NCI-H460
Description: as §1, §2, §3

[19] = Table 3, read-out: Cancer cell growth inhibitory ED50
[20] = Table 5, read-out: Cancer Cell Line Results ED50
[21] = P388, Table 3, leukemia P-388, read-out: Cancer cell growth inhibitory ED50
[22] = Table 5, leukemia P388, read-out: Cancer Cell Line Results ED50
[23] = DU-145, Table 5, prostate DRU-145, read-out: Cancer Cell Line Results ED50
[24] = Table 3, prostrate DU-145, read-out: Cancer cell growth inhibitory ED50

For Oc1cc2ccnc3c2c(c1O)NC=C3 (as salt: hydrobromid) [Compound 15, 8,9-Dihydroxy-1H-Benzo[de][1,6]naphthyridine hydrobromide], the melting point was 245 to 248 °C (dec.).
COc1cc2c3c(cc[n+](C)c3c1OC)N(C)C=C2.[I-] [Compound 5, 1,4-Dimethyl-8,9-dimethoxy-4H-benzo-[de][1,6]naphthyridin-1-ium iodide] showed an MIC [1] of 16 to 32 µg/mL, an IC50 [2, 19] of 6.1 µg/mL and an IC50 [2, 20] of 6.1 µg/mL. For the same molecule, the MIC [3] was > 64 µg/mL, the MIC [4] was > 64 µg/mL and the MIC [5] was > 64 µg/mL. For the same molecule, the MIC [6] was > 64 µg/mL, the IC50 [7, 19] was 0.69 µg/mL and the IC50 [7, 20] was 0.69 µg/mL. The MIC [8] was > 64 µg/mL, the inhibition at 30 µM [9] was ≤ 6% and the IC50 [10, 21] was 3.9 µg/mL. For the same molecule, the IC50 [10, 22] was 3.89 µg/mL, the “P388 ED50” value [10] was 3.9 µg/mL and the MIC [11] was > 64 µg/mL. For the same molecule, the MIC [12] was > 64 µg/mL, the MIC [13] was > 64 µg/mL and the MIC [14] was > 64 µg/mL. The IC50 [15, 19] was 4.9 µg/mL, the IC50 [15, 20] was 4.9 µg/mL and the IC50 [16, 19] was 7.1 µg/mL. The IC50 [16, 20] was 7.1 µg/mL, the IC50 [17, 23] was 3.5 µg/mL and the IC50 [17, 24] was 3.5 µg/mL. The IC50 [18, 19] was > 10 µg/mL and the IC50 [18, 20] was > 10 µg/mL.
In the case of COc1cc2c3c(ccnc3c1O)N(C)C=C2 [Compound 8, 4-Methyl-8-methoxy-9-hydroxy-4H-benzo[de][1,6]naphthyridine], the MIC [1] was > 64 µg/mL, the IC50 [2, 19] was > 10 µg/mL and the MIC [3] was > 64 µg/mL. The MIC [4] was > 64 µg/mL, the MIC [5] was > 64 µg/mL and the MIC [6] was > 64 µg/mL. The IC50 [7, 19] was > 10 µg/mL, the MIC [8] was > 64 µg/mL and the IC50 [10, 21] was > 10 µg/mL. The MIC [11] was > 64 µg/mL, the MIC [12] was > 64 µg/mL and the MIC [13] was > 64 µg/mL. The MIC [14] was 4 µg/mL (≈ 17.5 µM), the IC50 [15, 19] was > 10 µg/mL and the IC50 [16, 19] was > 10 µg/mL. The IC50 [17, 24] was > 10 µg/mL and the IC50 [18, 19] was > 10 µg/mL.
In the case of COc1cc(CN2C=Cc3cc(OC)c(OC)c4nccc2c34)cc(OC)c1OC.Cl [Compound 9c, 8,9-Dimethoxy-4-(3,4,5-trimethoxybenzyl)-4H-benzo[de][1,6]naphthyridine hydrochloride], the “Range of minimum inhibitory concentration” value ([1]; Table 6) was “* (no inhibition at 64 μg/mL)”, the IC50 [2, 20] was 3.4 µg/mL and the “Range of minimum inhibitory concentration” value ([3]; Table 6) was “* (no inhibition at 64 μg/mL)”. The “Range of minimum inhibitory concentration” value ([6]; Table 6) was “* (no inhibition at 64 μg/mL)”, the IC50 [7, 20] was > 10 µg/mL and the “Range of minimum inhibitory concentration” value ([8]; Table 6) was “* (no inhibition at 64 μg/mL)”. The inhibition at 30 µM [9] was ≤ 6%, the IC50 [10, 22] was 4.64 µg/mL and the melting point was 198 to 200 °C (dec.). For the same molecule, the “Range of minimum inhibitory concentration” value ([11]; Table 6) was “* (no inhibition at 64 μg/mL)”, the “Range of minimum inhibitory concentration” value ([12]; Table 6) was “* (no inhibition at 64 μg/mL)” and the “Range of minimum inhibitory concentration” value ([13]; Table 6) was “* (no inhibition at 64 μg/mL)”. The “Range of minimum inhibitory concentration” value ([14]; Table 6) was 64 µg/mL, the IC50 [15, 20] was > 10 µg/mL and the IC50 [16, 20] was > 10 µg/mL. The IC50 [17, 23] was > 10 µg/mL and the IC50 [18, 20] was > 10 µg/mL.
With COC1=Cc2ccnc3ccnc(c23)C1(OC)OC [Compound 12] the “P388 ED50” value [10] was 59 µg/mL.
For COc1ccc(CN2C=Cc3cc(OC)c(OC)c4c3c2cc[n+]4C)cc1.[I-] [Compound 17, 1-Methyl-4-(4-methoxybenzyl)-8,9-dimethoxy-4H-benzo[de][1,6]-naphthyridin-1-ium iodide], the MIC [1] was 4 to 8 µg/mL, the IC50 [2, 19] was 5.4 µg/mL and the MIC [3] was > 64 µg/mL. For the same molecule, the MIC [4] was > 64 µg/mL, the MIC [5] was > 64 µg/mL and the MIC [6] was > 64 µg/mL. The IC50 [7, 19] was 5.9 µg/mL, the MIC [8] was > 64 µg/mL and the IC50 [10, 21] was 3.1 µg/mL. For the same molecule, the MIC [11] was > 64 µg/mL, the MIC [12] was > 64 µg/mL and the MIC [13] was > 64 µg/mL. For the same molecule, the MIC [14] was 64 µg/mL, the IC50 [15, 19] was 8 µg/mL and the IC50 [16, 19] was 7 µg/mL. It also gave an IC50 [17, 24] of 7.5 µg/mL and an IC50 [18, 19] of 4.6 µg/mL.
